Source: paper PMC6367362, “MD001, a Novel Peroxisome Proliferator-activated Receptor α/γ Agonist, Improves Glucose and Lipid Metabolism” (Scientific Reports, 2019)

Tests used:
db/db mice [1] = conditions: mouse, in vivo; for H&E staining of skeletal muscle: 20 mg/kg
Method: (§4) (A) Changes in blood glucose levels was monitored in db/db mice administered once a day with vehicle, WY14643 (WY, 20 mg/kg), rosiglitazone (rosi, 20 mg/kg), or MD001 (n = 5–6 per group) as indicated. […] (D–M) The change in various blood metabolites was examined in db/db mice administered once a day with vehicle, WY14643 (WY), rosiglitazone (rosi), or MD001 (n = 5–6 per group). *, **, and ^#, vs. vehicle; ^†, vs. vehicle, MD001(5 mg/kg), and MD001(20 mg/kg). The data represent the mean ± S.D. *P < 0.05, **P < 0.01, ^#P < 0.001, and ^†P < 0.01.
(§5) Six-week-old C57BLKS/J-Lepr^db/Lepr^db or wild type C57BL/6J male mice were purchased from Orient Bio, Inc. (Seongnam, Korea) and acclimatised for one week. Mice were randomly grouped and orally administered with vehicle, WY14643 (20 mg/kg), rosiglitazone (20 mg/kg), or MD001 (5 mg/kg or 20 mg/kg) once a day for two months. […] Blood glucose levels were measured at the indicated time point using an OneTouch Ultra Blood Glucose Monitoring System (LifeScan, Inc., Milpitas, CA, USA).
(§6) Livers and blood samples were collected from mice in each group.
(§7) Tissues specimens including liver, perigonadal adipose tissue, skeletal muscle, spleen, kidney, and heart, were collected from mice in each group, fixed in 10% formalin, and embedded into paraffin. Tissue sections (5 μm) were stained with haematoxylin and eosin (H&E).

db/db mice [2] = assay: Oral once-daily administration to diabetic db/db mice; conditions: db/db mice; for number of large fat cells (>150 μm in diameter) / number of small fat cells (<100 μm in diameter): adipose tissue H&E; for blood glucose levels: MD001 5 or 20 mg/kg, WY14643 20 mg/kg, rosiglitazone 20 mg/kg; for diameter of the glomerular capsule: 20 mg/kg once a day for 60 days
Method: as §4, §5, §6, §7

wild type C57BL/6J mice = assay: Oral once-daily administration to wild type C57BL/6J mice; format: in vivo, mouse; conditions: wild type C57BL/6J mice
Method: Supplementary Figure S6. MD001 has no influence on food intake of mice. (A) Wild type C57/BL6 mice were orally administered with vehicle, rosiglitazone (20 mg/kg), or MD001 (20 mg/kg) once a day for 60 days. The change in their body weight was evaluated and presented as gain of body weight per group (n = 5 - 6 in each group). (B) The 3-day food intake in wild type C57/BL6 mice or db/db mice during the administration of the indicated drug was measured three times (n = 5 - 6 in each group). The data represent the mean ± SD.
C57/BL6 mice. (A-H) Wild type C57/BL6 mice were administered with vehicle, rosiglitazone (20 mg/kg), or MD001 (20 mg/kg) (n = 5 in each group) for 60 days, and their blood metabolites were measured. (B) Blood glucose level was examined during the administration of the […]

human HA-PPARγ = target: T1, human HA-PPARγ (Homo sapiens, UniProt P37231); assay: PPRE luciferase activity assay in HEK293 cells transfected with HA-PPARγ; format: cell-based; design: transcriptional activity of PPARγ: dose or concentration left out as unconfirmed; conditions: HEK293, PPRE-pk-Luc; 24 h (Supplementary Fig. S2)
T1 construct: expressed in transfected cells; host or cells: HEK293
T1 sequence (P37231 1-505): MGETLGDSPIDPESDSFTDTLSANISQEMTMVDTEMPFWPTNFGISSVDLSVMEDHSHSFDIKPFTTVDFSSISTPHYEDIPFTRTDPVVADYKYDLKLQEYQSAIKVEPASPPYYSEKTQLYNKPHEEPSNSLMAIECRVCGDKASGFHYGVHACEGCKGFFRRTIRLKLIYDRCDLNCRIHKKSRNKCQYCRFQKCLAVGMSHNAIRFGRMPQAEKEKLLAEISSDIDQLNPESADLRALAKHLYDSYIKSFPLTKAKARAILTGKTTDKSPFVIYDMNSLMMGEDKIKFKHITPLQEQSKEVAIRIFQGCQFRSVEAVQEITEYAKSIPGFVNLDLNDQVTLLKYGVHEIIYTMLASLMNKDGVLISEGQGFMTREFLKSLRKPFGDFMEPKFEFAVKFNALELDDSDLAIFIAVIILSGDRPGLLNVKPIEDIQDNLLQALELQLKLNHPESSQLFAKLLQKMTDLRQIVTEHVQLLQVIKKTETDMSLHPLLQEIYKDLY
Method: (§1) Figure 2 MD001 induces the expression of target genes through PPARα and PPARγ activation. HEK293 cells were transiently co-transfected with human HA-PPARα (A) and HA-PPARγ (B) expression vectors along with the reporter plasmid (PPRE-pk-Luc) or control reporter plasmid (pk-Luc) with Renilla vector for 24 h. Cells were treated with MD001 (10 μM), rosiglitazone (rosi) (10 μM) or WY14643 (WY) (10 μM) for 24 h. Luciferase activity was normalised to Renilla luciferase activity as described in the Methods section. **, vs. vehicle. (C) HepG2 cells were treated with MD001 (10 μM) for 24 h, and total RNA was isolated and synthesised into cDNA. Relative expression was quantitated using qRT-PCR. **, vs. vehicle. (D,E) HepG2 cells were transfected with control siRNA, PPARα siRNA (D), or PPARγ siRNA (E) for 48 h and treated with vehicle, WY14643 (10 μM), rosiglitazone (10 μM) or MD001 (10 μM) for 24 h. Subsequently, cells were harvested for total RNA isolation. Relative expression of target genes was quantitated using qRT-PCR. ^#, vs. control siRNA; ^‡, vs. control siRNA/vehicle; ^§, vs. control siRNA/WY; * and **, vs. control siRNA/MD001. Data represent the mean ± SD of three independent experiments. *P < 0.05, **P < 0.01, ^#P < 0.01, ^‡P < 0.01, and ^§P < 0.01.
(§2) For transient transfection, cells were transfected with plasmid DNA constructs by polyethylenimine (PEI, Polysciences, Inc., Warrington, PA, USA) according to the manufacturer’s instructions. Transcription activity assays of PPARα and PPARγ in HEK293 cells were performed by co-transfection of HA-PPARα, HA-PPARγ, and peroxisome proliferator-response element (PPRE) reporter plasmid (PPRE-pk-Luc) or control reporter plasmid (pk-Luc) with Renilla vector for 24 h. […] Luciferase activity was measured with the Dual-Luciferase Reporter Assay System (Promega, Madison, WI, USA) and quantified using GloMax (Promega, USA) according to the manufacturer’s protocol. […]
(§3) Luciferase activity was measured as described in the Methods section. […]

human HA-PPARα = target: T2, human HA-PPARα (Homo sapiens, UniProt Q07869); assay: PPRE luciferase activity assay in HEK293 cells transfected with HA-PPARα; format: cell-based; design: transcriptional activity of PPARα: dose or concentration left out as unconfirmed; conditions: HEK293, PPRE-pk-Luc; 24 h (Supplementary Fig. S2)
T2 construct: expressed in transfected cells; host or cells: HEK293
T2 sequence (Q07869 1-468): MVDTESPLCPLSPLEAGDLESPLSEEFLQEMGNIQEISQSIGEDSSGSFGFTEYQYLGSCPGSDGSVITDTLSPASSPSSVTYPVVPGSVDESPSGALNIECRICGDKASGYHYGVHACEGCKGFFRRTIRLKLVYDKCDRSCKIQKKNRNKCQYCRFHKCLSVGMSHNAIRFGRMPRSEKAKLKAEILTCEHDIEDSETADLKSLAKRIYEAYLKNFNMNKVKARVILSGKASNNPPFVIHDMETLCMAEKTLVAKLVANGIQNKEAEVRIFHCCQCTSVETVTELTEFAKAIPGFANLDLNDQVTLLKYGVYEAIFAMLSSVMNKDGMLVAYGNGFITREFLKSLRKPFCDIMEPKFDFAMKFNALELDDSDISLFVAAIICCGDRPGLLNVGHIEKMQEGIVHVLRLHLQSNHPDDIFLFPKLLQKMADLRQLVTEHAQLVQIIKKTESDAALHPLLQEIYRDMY
Method: as §1, §2, §3

SMILES	H&E staining of skeletal muscle (db/db mice [1])	number of large fat cells (>150 μm in diameter) (db/db mice [2])	number of small fat cells (<100 μm in diameter) (db/db mice [2])	blood FFA (db/db mice [2]; oral once a day)	blood TG (db/db mice [2]; oral once a day)	blood alanine aminotransferase (ALT) levels (db/db mice [2]; oral once a day)	blood aspartate aminotransferase (AST) levels (db/db mice [2]; oral once a day)	blood glucose levels (db/db mice [2]; oral once a day)	hepatic TG (db/db mice [2]; 20 mg/kg)	hepatic steatosis (H&E staining of liver) (db/db mice [2]; 20 mg/kg)	diameter of the glomerular capsule (db/db mice [2])	H&E staining of adipose tissue, skeletal muscle, and liver (wild type C57BL/6J mice; 20 mg/kg once a day for 60 days)	melting point [°C]	transcriptional activity of PPARγ (human HA-PPARγ)	transcriptional activity of PPARα (human HA-PPARα)	food ingestion (db/db mice [1])	body weight gain (wild type C57BL/6J mice; once a day for 60 days)
CN(CCOc1ccc(CC2SC(=O)NC2=O)cc1)c1ccccn1 (stereo not drawn) [rosiglitazone, reference compound]	no differences	significantly reduced	significantly increased	significantly decreased	significantly decreased	significantly increased	significantly increased	significantly decreased	failed to reduce	exacerbated hepatic steatosis	significantly reduced	no differences	–	–	–	–	–
Cc1c(O)cc2oc(=O)c(C(=O)/C=C/c3ccccc3)c(-c3ccccc3)c2c1O [MD002]	–	–	–	–	–	–	–	–	–	–	–	–	274 to 278	failed to enhance	failed to enhance	–	–
Cc1cccc(Nc2cc(Cl)nc(SCC(=O)O)n2)c1C [WY14643, reference compound]	no differences	significantly reduced	significantly increased	significantly decreased	significantly decreased	–	–	significantly decreased	–	–	significantly reduced	–	–	–	–	without changes in food ingestion	no induction of body weight gain
